Source: article PMC8617627, “Novel DYRK1A Inhibitor Rescues Learning and Memory Deficits in a Mouse Model of Down Syndrome” (Pharmaceuticals, 2021)
Read-outs that look alike come from different tables or passages of the source.

What was measured:
Assay in all cases: Kinase profile (33P ATP filter binding)
Format in all cases: biochemical
Conditions in all cases: read-out: Remaining protein kinase activity
MARK3 = MARK3 (Homo sapiens, UniProt P27448)
ERK8 = target: T1, ERK8 (Homo sapiens, UniProt Q8TD08)
T1 sequence (Q8TD08 1-544): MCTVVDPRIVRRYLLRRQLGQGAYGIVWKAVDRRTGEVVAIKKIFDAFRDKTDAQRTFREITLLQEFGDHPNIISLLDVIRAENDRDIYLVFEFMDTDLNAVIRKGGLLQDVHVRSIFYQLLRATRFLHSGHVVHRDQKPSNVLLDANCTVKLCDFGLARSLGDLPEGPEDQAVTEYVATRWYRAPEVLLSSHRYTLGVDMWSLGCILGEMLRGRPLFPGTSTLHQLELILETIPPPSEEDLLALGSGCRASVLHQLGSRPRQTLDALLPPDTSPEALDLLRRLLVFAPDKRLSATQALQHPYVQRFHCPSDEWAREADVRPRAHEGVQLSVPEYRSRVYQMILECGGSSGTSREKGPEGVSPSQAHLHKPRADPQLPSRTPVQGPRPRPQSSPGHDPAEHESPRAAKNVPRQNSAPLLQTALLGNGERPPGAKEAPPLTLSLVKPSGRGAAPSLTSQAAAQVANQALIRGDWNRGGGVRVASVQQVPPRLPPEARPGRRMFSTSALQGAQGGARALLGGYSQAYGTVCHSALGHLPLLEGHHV

EPH-B4 = target: T2, EPH-B4 (Homo sapiens, UniProt P54760)
T2 sequence (P54760 16-987): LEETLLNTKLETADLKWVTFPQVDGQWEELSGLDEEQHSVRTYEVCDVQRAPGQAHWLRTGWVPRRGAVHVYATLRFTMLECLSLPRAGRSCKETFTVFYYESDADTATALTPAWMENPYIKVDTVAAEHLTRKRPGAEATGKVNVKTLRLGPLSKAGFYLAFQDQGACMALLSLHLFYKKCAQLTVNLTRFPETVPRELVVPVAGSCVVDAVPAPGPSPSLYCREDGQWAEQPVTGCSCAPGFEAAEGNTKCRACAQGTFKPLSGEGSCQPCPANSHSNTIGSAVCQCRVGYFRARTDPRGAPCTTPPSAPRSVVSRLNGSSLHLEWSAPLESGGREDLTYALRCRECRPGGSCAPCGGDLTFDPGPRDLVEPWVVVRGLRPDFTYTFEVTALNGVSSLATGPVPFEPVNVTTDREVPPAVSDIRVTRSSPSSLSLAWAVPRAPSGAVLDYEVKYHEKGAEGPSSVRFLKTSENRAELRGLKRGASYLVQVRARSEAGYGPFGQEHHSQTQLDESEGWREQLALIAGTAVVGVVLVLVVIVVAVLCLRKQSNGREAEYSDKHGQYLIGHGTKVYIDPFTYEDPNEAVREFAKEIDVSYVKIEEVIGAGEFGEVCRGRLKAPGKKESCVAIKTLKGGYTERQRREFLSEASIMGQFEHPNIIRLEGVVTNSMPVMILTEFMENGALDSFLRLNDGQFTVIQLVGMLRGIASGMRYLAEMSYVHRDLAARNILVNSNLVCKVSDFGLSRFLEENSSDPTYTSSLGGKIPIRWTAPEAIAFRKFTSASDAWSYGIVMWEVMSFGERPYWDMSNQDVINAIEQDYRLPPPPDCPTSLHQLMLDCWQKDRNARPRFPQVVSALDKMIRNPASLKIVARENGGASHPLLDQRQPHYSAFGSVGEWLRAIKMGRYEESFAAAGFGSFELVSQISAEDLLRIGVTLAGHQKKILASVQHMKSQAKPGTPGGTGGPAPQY

TBK1 = target: T3, TBK1 (Homo sapiens, UniProt Q9UHD2)
T3 sequence (Q9UHD2 1-729): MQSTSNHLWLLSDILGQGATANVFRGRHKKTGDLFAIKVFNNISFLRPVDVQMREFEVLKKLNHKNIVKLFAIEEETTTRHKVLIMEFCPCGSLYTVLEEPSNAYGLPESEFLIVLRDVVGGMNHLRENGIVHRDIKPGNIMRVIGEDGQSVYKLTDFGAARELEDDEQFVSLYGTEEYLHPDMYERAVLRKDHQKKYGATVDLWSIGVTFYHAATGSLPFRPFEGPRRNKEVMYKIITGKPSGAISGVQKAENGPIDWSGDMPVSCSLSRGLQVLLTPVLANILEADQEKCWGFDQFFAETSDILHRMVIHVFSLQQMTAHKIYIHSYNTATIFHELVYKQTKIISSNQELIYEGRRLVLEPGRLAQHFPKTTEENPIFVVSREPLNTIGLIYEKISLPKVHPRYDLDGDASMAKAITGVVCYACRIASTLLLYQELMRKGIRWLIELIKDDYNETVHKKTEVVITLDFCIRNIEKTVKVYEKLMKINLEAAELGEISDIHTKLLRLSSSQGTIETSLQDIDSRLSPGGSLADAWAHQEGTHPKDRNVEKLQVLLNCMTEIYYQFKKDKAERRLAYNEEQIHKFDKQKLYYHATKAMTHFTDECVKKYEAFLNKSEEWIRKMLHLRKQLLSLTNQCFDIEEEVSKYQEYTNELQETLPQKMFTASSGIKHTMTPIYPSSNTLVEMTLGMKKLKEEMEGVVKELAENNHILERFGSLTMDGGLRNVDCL

Chain of MARK3 (P27448 whole entry): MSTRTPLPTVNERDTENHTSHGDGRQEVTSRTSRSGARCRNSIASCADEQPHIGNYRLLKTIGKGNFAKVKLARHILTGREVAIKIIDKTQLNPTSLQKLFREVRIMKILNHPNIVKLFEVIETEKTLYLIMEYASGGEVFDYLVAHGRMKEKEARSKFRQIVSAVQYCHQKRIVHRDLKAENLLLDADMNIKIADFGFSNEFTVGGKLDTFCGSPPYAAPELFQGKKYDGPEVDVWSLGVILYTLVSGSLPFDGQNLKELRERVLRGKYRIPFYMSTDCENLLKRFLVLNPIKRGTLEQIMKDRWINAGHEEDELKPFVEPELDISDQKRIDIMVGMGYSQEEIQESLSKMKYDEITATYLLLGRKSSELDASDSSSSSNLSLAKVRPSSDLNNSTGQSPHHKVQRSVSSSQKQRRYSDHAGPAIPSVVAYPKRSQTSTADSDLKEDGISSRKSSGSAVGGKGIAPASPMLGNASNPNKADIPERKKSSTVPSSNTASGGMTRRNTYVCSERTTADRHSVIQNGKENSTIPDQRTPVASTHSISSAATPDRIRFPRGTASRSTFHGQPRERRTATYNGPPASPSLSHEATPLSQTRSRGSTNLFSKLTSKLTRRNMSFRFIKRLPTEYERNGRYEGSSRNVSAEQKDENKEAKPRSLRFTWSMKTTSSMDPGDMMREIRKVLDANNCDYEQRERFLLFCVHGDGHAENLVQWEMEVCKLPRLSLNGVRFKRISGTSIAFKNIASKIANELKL

SMILES	remaining activity at 1 µM (MARK3; MARK3, 1 μM)	remaining activity at 100 µM (MARK3; MARK3, 100 μM)	remaining activity at 1 µM (ERK8; ERK8, 1 μM)	remaining activity at 100 µM (ERK8; ERK8, 100 μM)	remaining activity at 1 µM (EPH-B4; EPH-B4, 1 μM)	remaining activity at 100 µM (EPH-B4; EPH-B4, 100 μM)	remaining activity at 1 µM (TBK1; TBK1, 1 μM)	remaining activity at 100 µM (TBK1; TBK1, 100 μM)	remaining activity at 1 µM (MARK3)	remaining activity at 100 µM (MARK3)	remaining activity at 1 µM (ERK8)	remaining activity at 100 µM (ERK8)	remaining activity at 100 µM (EPH-B4)	remaining activity at 1 µM (TBK1)	remaining activity at 100 µM (TBK1)
COc1ccc2sc(-c3cncc(N)c3)nc2c1 [compound 1, 5-(5-Methoxybenzo[d]thiazol-2-yl)pyridin-3-amine]	98%	34%	86%	4%	112%	97%	105%	60%	–	–	–	–	–	–	–
COc1ccc2sc(-c3cncc(NC(C)=O)c3)nc2c1 [PST-001, N-(5-(5-Methoxybenzo[d]thiazol-2-yl)pyridin-3-yl)acetamide]	–	–	–	–	–	–	–	–	99%	95%	89%	28%	130%	119%	104%
